# Assay results published in patent US9018208B2, “Heterocycles as potassium channel modulators” (Icagen Inc., priority 2007, dated 2015).
# System: SH-SY5Y M-currents (KCNQ2, KCNQ3 and KCNQ5)
# Experiment: SH-SY5Y native cell line FLIPR assay (voltage-sensitive dye DiBAC)
# Format: cell-based, mouse neuroblastoma, rat glioma hybrid cell line
# Conditions: SH-SY5Y native cell line, FLIPR assay (Table 3); read-out: SH-SY5Y EC50
# Summary of the method: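 Response is peak DiBAC fluorescence change, normalised to the maximum from a positive control agent, sampled every 30 s over 25 min. Before compound addition, SH-SY5Y cells differentiated with PGE1 plus isomethylbutylxanthine were dye-loaded for 1 h in EBSS with […] DiBAC.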
row,SMILES,EC50
1,"CC(C)(C)CC(=O)Nc1nc2ccc(F)cn2c1-c1ccc(F)cn1 [Compound 352, N-(6-fluoro-3-(5-fluoropyridin-2-yl)imidazo[1,2-a]pyridin-2-yl)-3,3-dimethylbutanamide]",0.5 to 3 µM
2,"CC(C)(C)CC(=O)Nc1nc2ccc(F)cn2c1-c1ccc(C#N)cn1 [Compound 354, N-(3-(5-cyanopyridin-2-yl)-6-fluoroimidazo[1,2-a]pyridin-2-yl)-3,3-dimethylbutanamide]",3 to 10 µM
3,"CC(C)(C)CC(=O)N(C(=O)CC(C)(C)C)c1nc2ccc(F)cn2c1-c1nc2ccccc2s1 [Compound 358, N-(3-(benzo[d]thiazol-2-yl)-6-fluoroimidazo[1,2-a]pyridin-2-yl)-N-(3,3-dimethylbutanoyl)-3,3-dimethylbutanamide]",3 to 10 µM
4,"CC(C)(C)CC(=O)Nc1nc2ccc(F)cn2c1-c1cc(Cl)ccn1 [Compound 364, N-(3-(4-chloropyridin-2-yl)-6-fluoroimidazo[1,2-a]pyridin-2-yl)-3,3-dimethylbutanamide]",0.5 to 3 µM
5,"CC(CC(=O)Nc1nc2ccc(F)cn2c1-c1ccc(F)cn1)C(F)(F)F (stereo not drawn) [Compound 369, 4,4,4-trifluoro-N-(6-fluoro-3-(5-fluoropyridin-2-yl)imidazo[1,2-a]pyridin-2-yl)-3-methylbutanamide]",3 to 10 µM
6,"CC(C)n1cc(-c2c(NC(=O)CC(C)(C)C)nc3ccc(F)cn23)cn1 [Compound 370, N-(6-fluoro-3-(1-isopropyl-1H-pyrazol-4-yl)imidazo[1,2-a]pyridin-2-yl)-3,3-dimethylbutanamide]",3 to 10 µM
7,"CC(C)(C)CCC(=O)Nc1nc2ccc(F)cn2c1-c1nc2ccccc2s1 [Compound 372, N-(3-(benzo[d]thiazol-2-yl)-6-fluoroimidazo[1,2-a]pyridin-2-yl)-4,4-dimethylpentanamide]",0.5 to 3 µM
8,"CC(C)C(C)C(=O)Nc1nc2ccc(F)cn2c1-c1nc2ccccc2s1 (stereo not drawn) [Compound 373, N-(3-(benzo[d]thiazol-2-yl)-6-fluoroimidazo[1,2-a]pyridin-2-yl)-2,3-dimethylbutanamide]",3 to 10 µM
9,"CC(C)(C)CC(=O)Nc1nc2ccc(F)cn2c1-c1nccc(C(F)(F)F)n1 [Compound 377, N-(6-fluoro-3-(4-(trifluoromethyl)pyrimidin-2-yl)imidazo[1,2-a]pyridin-2-yl)-3,3-dimethylbutanamide]",3 to 10 µM
10,"O=C(Cc1ccc(F)cc1)Nc1nc2ccc(F)cn2c1-c1nc2ccccc2s1 [Compound 379, N-(3-(benzo[d]thiazol-2-yl)-6-fluoroimidazo[1,2-a]pyridin-2-yl)-2-(4-fluorophenyl)acetamide]",0.5 to 3 µM
11,"O=C(CC1CCCC1)Nc1nc2ccc(F)cn2c1-c1nc2ccccc2s1 [Compound 380, N-(3-(benzo[d]thiazol-2-yl)-6-fluoroimidazo[1,2-a]pyridin-2-yl)-2-cyclopentylacetamide]",0.5 to 3 µM
12,"Cc1ccc2nc(NC(=O)CC(C)(C)C)c(-c3nc4ccccc4s3)n2n1 [Compound 382, N-(3-(benzo[d]thiazol-2-yl)-6-methylimidazo[1,2-b]pyridazin-2-yl)-3,3-dimethylbutanamide]",3 to 10 µM
13,"CC(CC(=O)Nc1nc2ccc(F)cn2c1-c1nccs1)C(F)(F)F (stereo not drawn) [Compound 383, 4,4,4-trifluoro-N-(6-fluoro-3-(thiazol-2-yl)imidazo[1,2-a]pyridin-2-yl)-3-methylbutanamide]",3 to 10 µM
14,"Cc1ccc2nc(NC(=O)Cc3ccc(F)cc3)c(-c3nc4ccccc4s3)n2n1 [Compound 385, N-(3-(benzo[d]thiazol-2-yl)-6-methylimidazo[1,2-b]pyridazin-2-yl)-2-(4-fluorophenyl)acetamide]",3 to 10 µM
15,"Cc1ccc2nc(NC(=O)CC(C)(C)C)c(-c3nccs3)n2n1 [Compound 387, 3,3-dimethyl-N-(6-methyl-3-(thiazol-2-yl)imidazo[1,2-b]pyridazin-2-yl)butanamide]",3 to 10 µM
16,"Cc1ccc2nc(NC(=O)Cc3ccc(F)cc3)c(-c3nccs3)n2n1 [Compound 390, 2-(4-fluorophenyl)-N-(6-methyl-3-(thiazol-2-yl)imidazo[1,2-b]pyridazin-2-yl)acetamide]",3 to 10 µM
17,"O=C(Nc1nc2ccc(F)cn2c1-c1nccs1)C1CCC(F)(F)CC1 [Compound 391, 4,4-difluoro-N-(6-fluoro-3-(thiazol-2-yl)imidazo[1,2-a]pyridin-2-yl)cyclohexanecarboxamide]",< 0.5 µM

# Now from value to molecule:
row,EC50,SMILES
1,3 to 10 µM,"CC(C)(C)CC(=O)Nc1nc2ccc(F)cn2c1-c1ccncc1 [Compound 351, N-(6-fluoro-3-(pyridin-4-yl)imidazo[1,2-a]pyridin-2-yl)-3,3-dimethylbutanamide]"
2,3 to 10 µM,"CC(C)(C)CC(=O)Nc1nc2ccc(F)cn2c1-c1cncc(C(F)(F)F)c1 [Compound 355, N-(6-fluoro-3-(5-(trifluoromethyl)pyridin-3-yl)imidazo[1,2-a]pyridin-2-yl)-3,3-dimethylbutanamide]"
3,3 to 10 µM,"Cc1ccc(-c2c(N(C(=O)CC(C)(C)C)C(=O)CC(C)(C)C)nc3ccc(F)cn23)nc1 [Compound 356, N-(3,3-dimethylbutanoyl)-N-(6-fluoro-3-(5-methylpyridin-2-yl)imidazo[1,2-a]pyridin-2-yl)-3,3-dimethylbutanamide]"
4,3 to 10 µM,"CC(C)(C)CC(=O)N(C(=O)CC(C)(C)C)c1nc2ccc(F)cn2c1-c1cccc(C(F)(F)F)n1 [Compound 357, N-(3,3-dimethylbutanoyl)-N-(6-fluoro-3-(6-(trifluoromethyl)pyridin-2-yl)imidazo[1,2-a]pyridin-2-yl)-3,3-dimethylbutanamide]"
5,0.5 to 3 µM,"Cc1ccc(-c2c(NC(=O)CC(C)(C)C)nc3ccc(F)cn23)nc1 [Compound 359, N-(6-fluoro-3-(5-methylpyridin-2-yl)imidazo[1,2-a]pyridin-2-yl)-3,3-dimethylbutanamide]"
6,< 0.5 µM,"CC(C)(C)CC(=O)Nc1nc2ccc(F)cn2c1-c1cccc(C(F)(F)F)n1 [Compound 361, N-(6-fluoro-3-(6-(trifluoromethyl)pyridin-2-yl)imidazo[1,2-a]pyridin-2-yl)-3,3-dimethylbutanamide]"
7,3 to 10 µM,"CC(C)(C)CC(=O)Nc1nc2ccc(F)cn2c1-c1ncccn1 [Compound 362, N-(6-fluoro-3-(pyrimidin-2-yl)imidazo[1,2-a]pyridin-2-yl)-3,3-dimethylbutanamide]"
8,0.5 to 3 µM,"Cc1ccnc(-c2c(NC(=O)CC(C)(C)C)nc3ccc(F)cn23)c1 [Compound 365, N-(6-fluoro-3-(4-methylpyridin-2-yl)imidazo[1,2-a]pyridin-2-yl)-3,3-dimethylbutanamide]"
9,0.5 to 3 µM,"COc1cccc(-c2c(NC(=O)CC(C)(C)C)nc3ccc(F)cn23)n1 [Compound 367, N-(6-fluoro-3-(6-methoxypyridin-2-yl)imidazo[1,2-a]pyridin-2-yl)-3,3-dimethylbutanamide]"
10,3 to 10 µM,"CC(C)C(C)C(=O)Nc1nc2ccc(F)cn2c1-c1ccc(F)cn1 (stereo not drawn) [Compound 368, N-(6-fluoro-3-(5-fluoropyridin-2-yl)imidazo[1,2-a]pyridin-2-yl)-2,3-dimethylbutanamide]"
11,3 to 10 µM,"CC(CC(=O)Nc1nc2ccc(F)cn2c1-c1nc2ccccc2s1)C(F)(F)F (stereo not drawn) [Compound 374, N-(3-(benzo[d]thiazol-2-yl)-6-fluoroimidazo[1,2-a]pyridin-2-yl)-4,4,4-trifluoro-3-methylbutanamide]"
12,< 0.5 µM,"CC1(CC(=O)Nc2nc3ccc(F)cn3c2-c2nc3ccccc3s2)CCCC1 [Compound 375, N-(3-(benzo[d]thiazol-2-yl)-6-fluoroimidazo[1,2-a]pyridin-2-yl)-2-(1-methylcyclopentyl)acetamide]"
13,< 0.5 µM,"CC(C)(C)CC(=O)Nc1nc2ccc(C(F)(F)F)cn2c1-c1nc2ccccc2s1 [Compound 376, N-(3-(benzo[d]thiazol-2-yl)-6-(trifluoromethyl)imidazo[1,2-a]pyridin-2-yl)-3,3-dimethylbutanamide]"
14,3 to 10 µM,"O=C(Nc1nc2ccc(F)cn2c1-c1nc2ccccc2s1)C1CCCC1 [Compound 378, N-(3-(benzo[d]thiazol-2-yl)-6-fluoroimidazo[1,2-a]pyridin-2-yl)cyclopentanecarboxamide]"
15,0.5 to 3 µM,"O=C(CC(F)(F)F)Nc1nc2ccc(F)cn2c1-c1nc2ccccc2s1 [Compound 381, N-(3-(benzo[d]thiazol-2-yl)-6-fluoroimidazo[1,2-a]pyridin-2-yl)-3,3,3-trifluoropropanamide]"
16,0.5 to 3 µM,"O=C(Cc1ccc(F)cc1)Nc1nc2ccc(F)cn2c1-c1nccs1 [Compound 384, N-(6-fluoro-3-(thiazol-2-yl)imidazo[1,2-a]pyridin-2-yl)-2-(4-fluorophenyl)acetamide]"
17,3 to 10 µM,"Cc1ccc2nc(NC(=O)CC(C)C(F)(F)F)c(-c3nc4ccccc4s3)n2n1 (stereo not drawn) [Compound 386, N-(3-(benzo[d]thiazol-2-yl)-6-methylimidazo[1,2-b]pyridazin-2-yl)-4,4,4-trifluoro-3-methylbutanamide]"
18,3 to 10 µM,"Cc1ccc2nc(NC(=O)CC(C)C(F)(F)F)c(-c3nccs3)n2n1 (stereo not drawn) [Compound 388, 4,4,4-trifluoro-3-methyl-N-(6-methyl-3-(thiazol-2-yl)imidazo[1,2-b]pyridazin-2-yl)butan amide]"
19,3 to 10 µM,"Cc1ccc2nc(NC(=O)C3CCC(F)(F)CC3)c(-c3nccs3)n2n1 [Compound 389, 4,4-difluoro-N-(6-methyl-3-(thiazol-2-yl)imidazo[1,2-b]pyridazin-2-yl)cyclohexanecarboxamide]"
20,3 to 10 µM,"Cc1cccc2nc(NC(=O)CC(C)(C)C)c(-c3nc4ccccc4s3)n12 [Compound 392, N-(3-(benzo[d]thiazol-2-yl)-5-methylimidazo[1,2-a]pyridin-2-yl)-3,3-dimethylbutanamide]"
21,0.5 to 3 µM,"Cc1cccc2nc(NC(=O)Cc3ccc(F)cc3)c(-c3nc4ccccc4s3)n12 [Compound 393, N-(3-(benzo[d]thiazol-2-yl)-5-methylimidazo[1,2-a]pyridin-2-yl)-2-(4-fluorophenyl)acetamide]"

# Same assay, conditions: read-out: SH-SY5Y_EC50
row,SMILES,EC50
1,"O=C(CC(F)(F)F)Nc1nc2ccc(F)cn2c1-c1nc2ccccc2s1 [Compound 381, N-(3-(benzo[d]thiazol-2-yl)-6-fluoroimidazo[1,2-a]pyridin-2-yl)-3,3,3-trifluoropropanamide]",2.13 µM
